# Data published in US20110045101A1, “FUNGICIDAL SUBSTITUTED AZOLES” (E.I. Du Pont De Nemours and Company, priority 2009, published 2011).
# Marks after values point to notes of the source that are not given here.
# Columns and labels:
# Format in all cases: in vivo
# Conditions in all cases: 100 = 100% disease control
# [1] = tested on: Septoria tritici; assay: Test G: wheat leaf blotch on wheat seedlings, sprayed the day before inoculation, visual disease rating
# Outline: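 Wheat seedlings were sprayed to run-off with test suspension (acetone/water plus surfactant), generally 200 ppm (≈500 g/ha), or 40 ppm where marked. Septoria tritici spores were inoculated the next day; plants were held 48 h at 24°C in saturated atmosphere, then 19 days at 20°C before visual disease rating.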
# [2] = tested on: Alternaria solani; assay: Test D: tomato early blight, sprayed the day before inoculation, visual disease rating
# Outline: (§1)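 Plants received a run-off spray at 200 ppm (equivalent to 500 g/ha) or, for starred values, 40 ppm. Formulation used acetone at 3% of volume in a 50/50 acetone/water mix carrying 250 ppm Trem® 014.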
# [3] = tested on: Botrytis cinerea; assay: Test C: tomato Botrytis on tomato seedlings, sprayed the day before inoculation, visual disease rating
# Outline: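 Rate: 200 ppm sprayed to run-off, corresponding to 500 g/ha; flagged values used 40 ppm. Vehicle was aqueous acetone (1:1) plus 250 ppm surfactant, compounds predissolved in acetone at 3% of volume. Plants were tomato seedlings.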
# [4] = tested on: Septoria nodorum; assay: Test F: wheat glume blotch on wheat seedlings, sprayed the day before inoculation, visual disease rating
# Outline: as §1
# [5] = tested on: Erysiphe graminis f. sp. tritici; assay: Test J: wheat powdery mildew on wheat seedlings, sprayed the day before inoculation, visual disease rating
# Outline: as §1
# [6] = tested on: Puccinia recondita f. sp. tritici; assay: Test I: wheat leaf rust on wheat seedlings, sprayed the day before inoculation, visual disease rating
# Outline: as §1
# [7] = 200 ppm, 0 = no control relative to controls
# [8] = 40 ppm (marked *), 0 = no control
SMILES,"Test G disease control rating [1, 7] [%]","Test D disease control rating [2, 7] [%]","Test C disease control rating [3, 7] [%]","Test F disease control rating [4, 7] [%]","Test J disease control rating [5, 7] [%]","Test I disease control rating [6, 7] [%]",further results
Cc1nc(Cl)c(-c2c(F)ccc(F)c2F)n1-c1ccc(F)cc1 [compound 145],100,100,99,100,100,100,–
Fc1ccc(-n2c(Cl)nc(Cl)c2-c2c(F)ccc(F)c2Cl)cc1 [compound 196],–,–,–,–,–,–,"Test G disease control rating ([1]; 200 ppm, 0 = no control): 92%; Test D disease control rating ([2]; 200 ppm, 0 = no control): 100%; Test C disease control rating ([3]; 200 ppm, 0 = no control): 99%; Test F disease control rating ([4]; 200 ppm, 0 = no control): 0%; Test J disease control rating ([5]; 200 ppm, 0 = no control): 97%; Test I disease control rating ([6]; 200 ppm, 0 = no control): 100%"
Fc1cccc(Cl)c1-c1c(Cl)nc(C(F)(F)F)n1-c1ccc(Cl)cc1 [compound 90],0,0,0,0,0,54,–
COc1cc(F)c(-n2cnc(Br)c2-c2ccc(Cl)cc2)c(F)c1 [compound 173],–,–,–,–,–,–,"Test G disease control rating [1, 8]: 90* %; Test D disease control rating [2, 8]: 0* %; Test C disease control rating [3, 8]: 98* %; Test F disease control rating [4, 8]: 0* %; Test J disease control rating [5, 8]: 0* %; Test I disease control rating [6, 8]: 41* %"
Fc1cc(-n2c(Br)nc(Cl)c2-c2c(F)ccc(F)c2Cl)ccc1Cl [compound 219],–,–,–,–,–,–,"Test G disease control rating ([1]; 200 ppm, 0 = no control): 96%; Test D disease control rating ([2]; 200 ppm, 0 = no control): 97%; Test C disease control rating ([3]; 200 ppm, 0 = no control): 98%; Test F disease control rating ([4]; 200 ppm, 0 = no control): 51%; Test J disease control rating ([5]; 200 ppm, 0 = no control): 99%; Test I disease control rating ([6]; 200 ppm, 0 = no control): 99%"
Cc1ccc(F)c(-c2c(Cl)nc(C)n2-c2ccc(Cl)cc2)c1F [compound 107],96,100,96,100,100,100,–
Fc1cccc(F)c1-c1c(Cl)nc(Cl)n1-c1cccc(Cl)c1 [compound 222],–,–,–,–,–,–,"Test G disease control rating ([1]; 200 ppm, 0 = no control): 99%; Test D disease control rating ([2]; 200 ppm, 0 = no control): 99%; Test C disease control rating ([3]; 200 ppm, 0 = no control): 99%; Test F disease control rating ([4]; 200 ppm, 0 = no control): 0%; Test J disease control rating ([5]; 200 ppm, 0 = no control): 98%; Test I disease control rating ([6]; 200 ppm, 0 = no control): 97%"
COc1ccc(F)c(-c2c(Cl)nc(Br)n2-c2ccc(Cl)cc2)c1F [compound 117],97,100,96,99,100,99,–
Cc1nn(C)c(-c2c(F)cccc2F)c1-c1ccc(Cl)c(F)c1 [compound 68],40,0,0,0,99,9,–
COc1ccc(F)c(-c2c(Cl)nc(Cl)n2-c2ccc(I)cc2)c1F [compound 444],98,100,99,100,99,95,–
Fc1ccc(-n2c(Br)nc(Cl)c2-c2c(F)cccc2F)cc1F [compound 169],–,–,–,–,–,–,"Test G disease control rating ([1]; 200 ppm, 0 = no control): 96%; Test D disease control rating ([2]; 200 ppm, 0 = no control): 100%; Test C disease control rating ([3]; 200 ppm, 0 = no control): 99%; Test F disease control rating ([4]; 200 ppm, 0 = no control): 40%; Test J disease control rating ([5]; 200 ppm, 0 = no control): 99%; Test I disease control rating ([6]; 200 ppm, 0 = no control): 88%"
Cc1ccc(-n2cnc(Cl)c2-c2c(F)ccc(F)c2F)cc1 [compound 123],48,99,99,0,94,90,–
Cc1nc(Cl)c(-c2c(F)cccc2F)n1-c1cc(F)cc(F)c1 [compound 73],87,100,100,60,100,100,–
Cc1nn(C)c(-c2c(Cl)cccc2Cl)c1-c1cccc(F)c1 [compound 88],0,0,75,0,99,68,–
"COc1cc(F)c(-c2c(Cl)nc(C)n2-c2cccc(F)c2)c(F)c1 [Compound 280, 4-chloro-5-(2,6-difluoro-4-methoxyphenyl)-1-(3-fluorophenyl)-2-methyl-1H-imidazole]",–,–,–,–,–,–,"pest or weed control at 200 ppm ([1]; Zymoseptoria tritici, 504 h, 200 ppm, 0 = no control): 95%; pest or weed control at 200 ppm ([2]; Alternaria solani, 168 h, 200 ppm, 0 = no control): 100%; pest or weed control at 200 ppm ([3]; Botrytis cinerea, 120 h, 200 ppm, 0 = no control): 100%; pest or weed control at 200 ppm ([4]; Parastagonospora nodorum, 264 h, 200 ppm, 0 = no control): 100%; pest or weed control at 200 ppm ([5]; Blumeria graminis, 168 h, 200 ppm, 0 = no control): 100%; pest or weed control at 200 ppm ([6]; Puccinia recondita, 168 h, 200 ppm, 0 = no control): 100%"
Cc1nc(Cl)n(-c2ccc(Cl)c(F)c2)c1-c1c(F)ccc(F)c1F [compound 389],91,100,98,0,98,99,–
Fc1cc(F)c(-n2cnc(Br)c2-c2ccc(Cl)cc2)c(F)c1 [compound 212],–,–,–,–,–,–,"Test G disease control rating [1, 8]: 0* %; Test D disease control rating [2, 8]: 20* %; Test C disease control rating [3, 8]: 40* %; Test F disease control rating [4, 8]: 0* %; Test J disease control rating [5, 8]: 0* %; Test I disease control rating [6, 8]: 0* %"
COc1cc(F)c(-c2c(Cl)ncn2-c2ccc(Cl)cc2)c(Cl)c1 [compound 132],92,98,94,0,97,74,–
Cc1nc(Cl)c(-c2cc(F)ccc2F)n1-c1ccc(Cl)cc1 [compound 93],99,100,97,100,100,98,–
COc1ccc(F)c(-c2c(Cl)nc(Br)n2-c2cccc(F)c2)c1F [compound 278],–,–,–,–,–,–,"Test G disease control rating ([1]; 200 ppm, 0 = no control): 95%; Test D disease control rating ([2]; 200 ppm, 0 = no control): 100%; Test C disease control rating ([3]; 200 ppm, 0 = no control): 99%; Test F disease control rating ([4]; 200 ppm, 0 = no control): 100%; Test J disease control rating ([5]; 200 ppm, 0 = no control): 100%; Test I disease control rating ([6]; 200 ppm, 0 = no control): 100%"
Fc1cc(Cn2c(Br)nc(Cl)c2-c2c(F)cccc2F)ccc1Cl [compound 102],97,0,98,55,99,99,–
COc1cc(F)c(-c2c(Cl)nc(Cl)n2-c2ccc(Cl)c(F)c2)c(F)c1 [compound 240],–,–,–,–,–,–,"Test G disease control rating ([1]; 200 ppm, 0 = no control): 97%; Test D disease control rating ([2]; 200 ppm, 0 = no control): 100%; Test C disease control rating ([3]; 200 ppm, 0 = no control): 100%; Test F disease control rating ([4]; 200 ppm, 0 = no control): 100%; Test J disease control rating ([5]; 200 ppm, 0 = no control): 100%; Test I disease control rating ([6]; 200 ppm, 0 = no control): 100%"
